The text below walks through data of PMC4718634, “Murine GPRC6A Mediates Cellular Responses to L-Amino Acids, but Not Osteocalcin Variants” (PLoS ONE, 2016).

“Also recorded” adds a separate entry of the source. Bridge positions count the residues as written; N and C are the ends. Ends that are not written are not given here.

For one assay, the system named is 22RV1 / PC-3. As to conditions: endogenous; ref [9] (supplement list); cited from earlier work. From the text: (§1) Supplement pone.0146846.s004.docx, table 1 | column: Functional assay
The subject of the next assay is mC6A. The conditions noted are these: ref [10] (supplement list); cited from earlier work.
Description: as §1

The test system of assay [1] is GPRC6A. As to conditions: ref [6] (supplement list); cited from earlier work.
Description: as §1

The test system of a further assay is GLUTag cells. The experiment in a line: GLP-1 release from GLUTag cells. The format is cell-based, murine. As to conditions: 0.01–10 ng/ml; with or without cell washing; 2 h; Fig 6A; listed as Human synthetic OCN. How it is done:
Intestinal L-cell model GLUTag cells were seeded in 24-well plates coated with Matrigel and incubated for 6 days in DMEM with 10% FBS, 100 U/ml penicillin, 100 μg/ml streptomycin at 37°C in 5% CO2 and grown for 4–5 days. Where indicated, cells were washed (1 or 2 x 1h) with Krebs-HEPES buffer (20 mM HEPES, 118 mM NaCl, 4.7 mM KCl, 1.2 mM MgSO4, 5 mM NaHCO3, 1.2 mM KH2PO4, 2.5 mM CaCl2, 5.5 mM glucose, 0.2% BSA (w/v), pH 7.2) containing vildagliptin (300 μM) prior to addition of test compounds in the same buffer. After 2 h incubation at 37°C in 5% CO2, the supernatant was recovered and centrifuged at 500 rpm for 5 min. Where used, NPS-2143 pre-treatment was for 30 min.
GLP-1 content in the cell supernatant was measured by ELISA (EGLP-35K, Millipore), according to manufacturer’s instructions after overnight incubation of 15 μl supernatant in 100 μl Krebs-HEPES buffer at 4°C. After 5 x washes, 200 μl of detection conjugate was added and incubated for 2 h at RT. After 3 x washes the reaction was developed with 200 μl of diluted substrate (1:200) for 20 min and terminated by addition of 50 μl stop solution. After 5 min, fluorescence was then measured using 355 nm excitation and 460 nm emission, transforming the obtained signal into pmol GLP-1/well/ml and corrected for GLUTag cell protein content as determined using the method of Bradford (1976).
(§2) Concentration-response data were analysed using a three or four parameter logistic function (Motulsky & Christopoulos, 2004) to generate estimates of agonist potency (LogEC50). Data for all HEK293 assays represent the mean ± SEM of at least three independent experiments (except cell impedance, n = 2). For GLP-1 release, the data represent mean ± SEM of three to five independent experiments (except for OCN, wash; n = 2). For insulin release assays, data represent the mean ± SEM of three independent experiments (except for islet studies; n = 2). Insulin release data were normalised to the response to vehicle in either low or high [glucose]. Statistical analysis for GLP-1 release data were performed by one-way ANOVA, followed by Sidak’s multiple comparisons test (treating wash / no wash datasets separately). Statistical analyses for insulin release data were performed by two-way ANOVA (with [glucose] and drug treatment as group variables), followed by Sidak’s multiple comparisons test. Where only high [glucose] groups were evaluated, statistical analysis was by one-way ANOVA followed by Sidak’s multiple comparisons test.

A further assay has as its system INS-1(832) cells. The experiment in a line: Label-free cell impedance, INS-1(832) cells. Type of assay: cell-based, rat. As to conditions: Gprc6a-negative, EBSS, 2.8 mM glucose, Fig 7, two-way ANOVA, *P < 0.05, **P < 0.01 vs Vehicle. How it is done:
For INS-1 cells, 100 μl of medium (RPMI 1640 no glucose, 10% FBS, 55 μM β-mercaptoethanol, 1 mM sodium pyruvate, 10 mM HEPES, 100 U/ml penicillin, 100 μg/ml streptomycin, 11.1 mM glucose) was added per well to an E-plate 96 and a background reading taken. Cells were seeded at 2 x 10^4 / well and the plates incubated in the instrument for 48 h. On the day of the experiment, media was changed to EBSS buffer (180 μl; 2.8 mM glucose, 1.8 mM CaCl2, 5.3 mM KCl, 0.8 mM MgSO4, 117 mM NaCl, 26 mM NaHCO3, 1 mM NaH2PO4). After 2 h incubation, cells were stimulated with 20 μl test compound (10 x final) prepared in the same buffer. Data capture and analysis were as for HEK293 cells.

In a further assay the target is T1, mGPRC6A (mouse GPRC6A) (Mus musculus, UniProt Q8K4Z6).
T1 sequence (Q8K4Z6 21-928): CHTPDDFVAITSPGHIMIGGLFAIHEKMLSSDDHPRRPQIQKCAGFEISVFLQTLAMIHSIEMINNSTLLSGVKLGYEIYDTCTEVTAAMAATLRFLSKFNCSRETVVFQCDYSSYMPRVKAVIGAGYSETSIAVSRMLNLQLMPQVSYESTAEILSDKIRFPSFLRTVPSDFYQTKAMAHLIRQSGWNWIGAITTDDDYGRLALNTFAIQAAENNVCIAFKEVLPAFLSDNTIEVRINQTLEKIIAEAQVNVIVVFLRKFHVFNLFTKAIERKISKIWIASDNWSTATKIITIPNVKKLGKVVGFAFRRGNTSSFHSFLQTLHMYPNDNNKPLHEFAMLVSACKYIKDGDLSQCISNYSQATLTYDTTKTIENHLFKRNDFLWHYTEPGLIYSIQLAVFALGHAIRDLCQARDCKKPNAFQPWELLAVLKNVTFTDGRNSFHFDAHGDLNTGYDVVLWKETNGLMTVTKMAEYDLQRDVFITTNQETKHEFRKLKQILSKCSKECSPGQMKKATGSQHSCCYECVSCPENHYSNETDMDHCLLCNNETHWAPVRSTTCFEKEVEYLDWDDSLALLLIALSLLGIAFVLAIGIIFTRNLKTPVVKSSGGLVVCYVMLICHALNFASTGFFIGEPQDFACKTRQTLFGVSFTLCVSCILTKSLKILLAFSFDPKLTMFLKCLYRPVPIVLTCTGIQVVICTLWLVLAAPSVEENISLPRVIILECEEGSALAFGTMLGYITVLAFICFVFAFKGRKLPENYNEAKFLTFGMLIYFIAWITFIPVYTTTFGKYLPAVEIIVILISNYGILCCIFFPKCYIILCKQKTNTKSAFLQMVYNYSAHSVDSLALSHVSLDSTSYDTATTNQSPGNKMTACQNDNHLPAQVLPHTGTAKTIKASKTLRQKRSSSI
The experiment in a line: Ca^2+i mobilisation, FlpIn-TREx-HEK293-mGPRC6A cells. Type of assay: cell-based. The conditions noted are these: for activity in calcium mobilisation assays: with co-expressed Gαq or GαqG66D. The procedure: pcDNA 5/FRT/TO constructs were isogenically integrated into a FlpIn-TREx-HEK293 cell line (Life Technologies). FlpIn-TREx-HEK293-mGPRC6A and FlpIn-TREx-HEK293-hGPRC6A cells were then selected using 600 μg/ml hygromycin and 5 μg/ml blasticidin and grown in culture medium consisting of Dulbecco’s Modified Eagle Medium (DMEM), supplemented with 10% (v/v) foetal bovine serum (FBS) at 37°C in 5% CO2 and were sub-cultured in a 1:3 ratio every 3–4 days. Cells were cultured overnight in the presence of 1 μg/ml tetracycline to induce GPRC6A expression. […] 48 h after transfection, cells were selected using 3 μg/ml puromycin and grown as above.
FlpIn-TREx-HEK293-mGPRC6A cells were seeded into T75 flasks at 70% confluency. Cells were transfected with 15μg of plasmid DNA (Gαq or GαqG66D) with Lipofectamine LTX according to manufacturer's instructions, then incubated for 24h at 37°C in 5% CO2. Cells were plated into 96-well plates (10^5 cells/well) and equilibrated at 37°C in 5% CO2 for 4-6h to adhere, whereupon cells were serum starved overnight at 37°C in 5% CO2. For the assay, cells were washed twice in Ca^2+ assay buffer (150 mM NaCl, 2.6 mM KCl, 1.2 mM MgCl2, 10 mM dextrose, 10 mM HEPES, 2.2 mM CaCl2, 0.5% (w/v) BSA and 4 mM probenecid; pH 7.4). Buffer was then replaced with Ca^2+ assay buffer containing 1μM Fluo-4-AM and incubated for 1h at 37°C in 5% CO2. Cells were washed twice more and replaced with Ca^2+ assay buffer at 37°C. Serial dilutions of test agonists were added by injection in a Flexstation™ (Molecular Devices) and fluorescence was measured at 485nm excitation and 520nm emission wavelengths. Agonist responses were normalised to the peak of response to 100 μM ATP.
as §2, with “Data” for “Concentration-response data were analysed using a three or four parameter logistic function (Motulsky & Christopoulos, 2004) to generate estimates of agonist potency (LogEC50). Data”

Assay [2] deals with GPRC6A. The conditions noted are these: HEK293, mouse GPRC6A with human OCN; ref [11]; cited from earlier work. From the text: Additional interest in GPRC6A has emerged due to several studies reporting that it mediates the metabolic and endocrine effects of the de-carboxylated form of the osteoblast-derived peptide, osteocalcin (OCN).

As to `C[C@]1(O)CC[C@H]2[C@@H]3CCC4=CC(=O)CCC4=C3C=C[C@@]21C` [R1881], the “PSA, Runx2 expression response” value in the assay on 22RV1 / PC-3 was “pERK1/2 – response to Ca^2+, ZnCl2, OCN, Arginine, Testosterone-BSA Proliferation – response to Ca^2+, OCN PSA, Runx2 expression – response to OCN, Arg, R1881 Chemotaxis (22RV1) – response to Ca^2+, OCN”. Moreover, in the assay on mC6A, the SRE-reporter gene response entry is on record as “pERK1/2 – response to Testosterone-BSA, R1881 SRE-reporter gene – response to R1881, Ca^2+” and the pERK1/2 response result is given as “pERK1/2 – response to Testosterone-BSA, R1881 SRE-reporter gene – response to R1881, Ca^2+”.

With `[Ca+2].[Cl-].[Cl-]` [CaCl2], in the assay with GPRC6A [1], the SRE-reporter gene response entry was “pERK1/2 – response to Ca^2+, Mg^2+, Gd^3+, Al^3+, NPS R568 SRE-reporter gene – response to CaCl2, SrCl2, MgCl2, GdCl3 and OCN”.

In the case of “YLYQWLGAPVPYPDPLEPRREVCELNPDCDELADHIGFQEAYRRFYGPV-NH2/-COOH (disulfide) [human synthetic OCN, synthetic de-carboxylated human osteocalcin, Federation Bioscience]”, the “GLP-1 release, OCN” value in the assay on GLUTag cells is “did not significantly modulate GLP-1 release”. The “change in cell impedance (cell index)” value in the assay on INS-1(832) cells (listed as synthetic human OCN) is recorded as “significant changes in cell impedance; also recorded: Concentration-dependent increases in cell index”.

For the compound `N[C@@H](Cc1c[nH]cn1)C(=O)O` [L-histidine], on mGPRC6A (mouse GPRC6A), the EC50 was more than 1000 µM and the “activity in calcium mobilisation assays” value is listed as “little or no activity”. In the case of “mouse OCN: in b69: synthetic mouse OCN of Fig 7 (GSPEFYLGASVPSPDPLEPTREQCELNPACDELSDQYGLKTAYKRIYGITI; ends and bridges not checked; cysteine pairing not given here)”, the “change in cell impedance (cell index)” value in the assay on INS-1(832) cells is reported as “significant, concentration-dependent activity”. `NC(=O)CC[C@H](N)C(=O)O` [L-glutamine]: on mGPRC6A (mouse GPRC6A), the half-maximal effective concentration (EC50) was more than 1000 µM and the “activity in calcium mobilisation assays” value is listed as “little or no activity”. Regarding `COc1cccc([C@@H](C)NCCCc2ccccc2Cl)c1` [NPS R568], the pERK1/2 response entry in the assay on GPRC6A [1] is “pERK1/2 – response to Ca^2+, Mg^2+, Gd^3+, Al^3+, NPS R568 SRE-reporter gene – response to CaCl2, SrCl2, MgCl2, GdCl3 and OCN”. On to `[Cl-].[Cl-].[Sr+2]` [SrCl2], for which the SRE-reporter gene response result with GPRC6A [1] was “pERK1/2 – response to Ca^2+, Mg^2+, Gd^3+, Al^3+, NPS R568 SRE-reporter gene – response to CaCl2, SrCl2, MgCl2, GdCl3 and OCN”.

`[Cl][Gd]([Cl])[Cl]` [GdCl3]: in the assay with GPRC6A [1], the SRE-reporter gene response result was “pERK1/2 – response to Ca^2+, Mg^2+, Gd^3+, Al^3+, NPS R568 SRE-reporter gene – response to CaCl2, SrCl2, MgCl2, GdCl3 and OCN”. “human OCN: in b69: synthetic human OCN of Fig 7; in b64: human OCN of ref 11 (YLYQWLGAPVPYPDPLEPRREVCELNPDCDELADHIGFQEAYRRFYGPV; disulfide 23-29 (inferred); not fully specified; printed as YLYQWLGAPVPYPDPLEPRREVCELNPDCDELADHIGFQEAYRRFYGPV-NH2/-COOH; ends not checked; UniProt P02818 52-100, looked up)”: the “OCN concentration stimulating cAMP accumulation” value in the assay with GPRC6A [2] is given as 60 ng/mL. Besides, in the assay on INS-1(832) cells, the “change in cell impedance (cell index)” value is on record as “significant, concentration-dependent activity”. As for `[Cl-].[Cl-].[Mg+2]` [MgCl2], the SRE-reporter gene response entry with GPRC6A [1] is “pERK1/2 – response to Ca^2+, Mg^2+, Gd^3+, Al^3+, NPS R568 SRE-reporter gene – response to CaCl2, SrCl2, MgCl2, GdCl3 and OCN”. For `CC(C)[C@H](N)C(=O)O` [L-valine], on mGPRC6A (mouse GPRC6A), the EC50 is more than 1000 µM and the “activity in calcium mobilisation assays” value is on record as “little or no activity”.
